Measured values from patent US6355614B1, “Cyclic boroproline compounds” (Point Therapeutics, priority 1998, dated 2002).

Assay: Conformational equilibrium of open chain and cyclic forms in aqueous solution (from apparent Ki at equilibrium vs true Ki)
Assay type: physicochemical
Details: at equilibrium at pH 7.0
Excerpt: See FIG. 3 which is a diagram showing the structures of the open and cyclized forms of Xaa-boroPro inhibitors (conformational equilibrium of Xaa-boroproline inhibitors). The open, active, inhibitory chain species is favored at low pH while the cyclized structure is favored at neutral pH. The reaction is fully reversible: the open chain becomes predominant at low pH. The open chain to cyclic species reaction involves a trans to cis isomerization of the proline and the formation of a new N—B bond. […] G. Gutheil and W. W. Bachovchin, Separation of L-Pro-DL-boroPro into Its Component Diastereomers and Kinetic Analysis of Their Inhibition of Dipeptidyl Peptidase IV. A New Method for the Analysis of Slow, Tight-Binding Inhibition, Biochemistry 32, 8723-8731 (1993)).

Structure (SMILES)	fraction existing as the open chain, inhibitory species
CC(C)C(N)C(=O)N1CCCC1B(O)O (centres unmarked) [Val-boroPro]	less than 0.1%
O=C(C1CCCN1)N1CCCC1B(O)O (centres unmarked) [Pro-boroPro]	less than 1%
